Test results published in PubChem BioAssay (NCI).
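Tested at 5 concentrations; 48 h exposure; 96-well plates; endpoints linearly interpolated, else capped at highest concentration. At the TGI there is no net growth.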

Columns and labels:
Test in all cases: growth of human tumour cells (NCI), 48 h
A498 renal = tested on: A498 renal
UO-31 renal = tested on: UO-31 renal
UACC-257 melanoma = tested on: UACC-257 melanoma
SF-539 CNS = tested on: SF-539 CNS
HCT-116 colon = tested on: HCT-116 colon
NCI-H23 lung = tested on: NCI-H23 lung
SK-MEL-28 melanoma = tested on: SK-MEL-28 melanoma
HL-60(TB) leukemia = tested on: HL-60(TB) leukemia
SN12C renal = tested on: SN12C renal
SK-MEL-5 melanoma = tested on: SK-MEL-5 melanoma
SK-MEL-2 melanoma = tested on: SK-MEL-2 melanoma

Cc1ccc(S(=O)(=O)N/N=c2\c(C)c(C3=NS(=O)(=O)c4cc(S(N)(=O)=O)c(Cl)cc4N3)oc3c(Cl)cc(Cl)cc23)cc1
TGI (A498 renal): > 100 µM | TGI (UO-31 renal): > 100 µM | TGI (UACC-257 melanoma): > 100 µM | TGI (SF-539 CNS): > 100 µM | TGI (HCT-116 colon): > 100 µM | TGI (NCI-H23 lung): > 100 µM | TGI (SK-MEL-28 melanoma): > 100 µM | TGI (HL-60(TB) leukemia): > 100 µM | TGI (SN12C renal): > 100 µM | TGI (SK-MEL-5 melanoma): > 100 µM | TGI (SK-MEL-2 melanoma): > 100 µM

O=[N+]([O-])c1ccc2c(c1)Nc1c3ccccc3nc3cccc-2c13
TGI (A498 renal): > 100 µM | TGI (UO-31 renal): 28.9 µM | TGI (UACC-257 melanoma): 47.9 µM | TGI (SF-539 CNS): 44.3 µM | TGI (HCT-116 colon): 28.8 µM | TGI (NCI-H23 lung): > 55.1 µM | TGI (SK-MEL-28 melanoma): 24.8 µM | TGI (HL-60(TB) leukemia): > 23.1 µM | TGI (SN12C renal): > 80 µM | TGI (SK-MEL-5 melanoma): 5.51 µM | TGI (SK-MEL-2 melanoma): 39.5 µM

Cc1cc2c(cc1C)[n+](=O)c(C#N)c(Cl)n2[O-]
TGI (A498 renal): 39.5 µM | TGI (UO-31 renal): 32.2 µM | TGI (UACC-257 melanoma): 27 µM | TGI (SF-539 CNS): 28.2 µM | TGI (HCT-116 colon): 32 µM | TGI (NCI-H23 lung): 25.1 µM | TGI (SK-MEL-28 melanoma): 42.5 µM | TGI (HL-60(TB) leukemia): 84.3 µM | TGI (SN12C renal): 28.3 µM | TGI (SK-MEL-5 melanoma): 29 µM | TGI (SK-MEL-2 melanoma): 92.5 µM

CC(C)OC(=O)C1=C(O)c2ccccc2S(=O)(=O)N1
TGI (A498 renal): > 100 µM | TGI (UACC-257 melanoma): > 100 µM | TGI (SF-539 CNS): > 100 µM | TGI (HCT-116 colon): > 100 µM | TGI (NCI-H23 lung): > 100 µM | TGI (SK-MEL-28 melanoma): > 100 µM | TGI (SN12C renal): > 100 µM | TGI (SK-MEL-5 melanoma): > 100 µM | TGI (SK-MEL-2 melanoma): > 100 µM

O=C(O)NCc1ccccc1 (tested in a mixture with another compound)
TGI (A498 renal): 85.3 µM | TGI (UO-31 renal): 91.9 µM | TGI (UACC-257 melanoma): > 95.9 µM | TGI (SF-539 CNS): > 100 µM | TGI (HCT-116 colon): > 100 µM | TGI (NCI-H23 lung): > 100 µM | TGI (SK-MEL-28 melanoma): > 100 µM | TGI (HL-60(TB) leukemia): 48.9 µM | TGI (SN12C renal): > 100 µM | TGI (SK-MEL-5 melanoma): 33.4 µM | TGI (SK-MEL-2 melanoma): 33.7 µM

CCOC(=O)[C@H]1Nc2c(cccc2[N+](=O)[O-])[C@H]2OCC[C@@H]12
TGI (UO-31 renal): > 100 µM | TGI (UACC-257 melanoma): 86.1 µM | TGI (SF-539 CNS): > 100 µM | TGI (HCT-116 colon): > 100 µM | TGI (NCI-H23 lung): > 100 µM | TGI (SK-MEL-28 melanoma): > 100 µM | TGI (SN12C renal): > 100 µM | TGI (SK-MEL-5 melanoma): > 100 µM | TGI (SK-MEL-2 melanoma): > 100 µM

Oc1c2c(c3c4c1N=CC=4CCN=3)-c1c(Br)cc(Br)cc1CCN2
TGI (A498 renal): 24.7 µM | TGI (UO-31 renal): 23.1 µM | TGI (UACC-257 melanoma): 2.86 µM | TGI (SF-539 CNS): 9.46 µM | TGI (HCT-116 colon): 4.47 µM | TGI (NCI-H23 lung): 3.88 µM | TGI (SK-MEL-28 melanoma): 21.8 µM | TGI (HL-60(TB) leukemia): 4.09 µM | TGI (SN12C renal): 5.86 µM | TGI (SK-MEL-5 melanoma): 3.38 µM | TGI (SK-MEL-2 melanoma): 13.5 µM

C=C1CC[C@@H](Br)C(C)(C)[C@]12CCC(C)(O)C(Cl)C2 (some centres not stated)
TGI (A498 renal): 44.7 µM | TGI (UO-31 renal): 32 µM | TGI (UACC-257 melanoma): 32.4 µM | TGI (HCT-116 colon): 32.3 µM | TGI (NCI-H23 lung): 64.4 µM | TGI (SK-MEL-28 melanoma): 40.2 µM | TGI (HL-60(TB) leukemia): 42.2 µM | TGI (SN12C renal): 30 µM | TGI (SK-MEL-5 melanoma): 35.7 µM | TGI (SK-MEL-2 melanoma): 39.7 µM

CC(=O)OC/C=C/Cn1ncc(=O)[nH]c1=O
TGI (A498 renal): > 100 µM | TGI (UO-31 renal): > 100 µM | TGI (SF-539 CNS): > 100 µM | TGI (SK-MEL-28 melanoma): > 100 µM | TGI (HL-60(TB) leukemia): > 100 µM | TGI (SN12C renal): > 100 µM | TGI (SK-MEL-5 melanoma): > 100 µM | TGI (SK-MEL-2 melanoma): > 100 µM

Nc1nncc2c1ccn2C1OC(CO)C(O)C1O (configuration not stated)
TGI (A498 renal): > 100 µM | TGI (UO-31 renal): > 100 µM | TGI (UACC-257 melanoma): > 100 µM | TGI (SF-539 CNS): > 100 µM | TGI (HCT-116 colon): > 100 µM | TGI (NCI-H23 lung): > 100 µM | TGI (SK-MEL-28 melanoma): > 100 µM | TGI (HL-60(TB) leukemia): > 100 µM | TGI (SN12C renal): > 100 µM | TGI (SK-MEL-5 melanoma): > 100 µM | TGI (SK-MEL-2 melanoma): > 100 µM

CC1CCC(O)(C(C)(C(=O)O)c2ccccc2)CC1 (configuration not stated)
TGI (A498 renal): > 100 µM | TGI (UO-31 renal): > 100 µM | TGI (UACC-257 melanoma): > 100 µM | TGI (HCT-116 colon): > 100 µM | TGI (NCI-H23 lung): > 100 µM | TGI (SK-MEL-28 melanoma): > 100 µM | TGI (HL-60(TB) leukemia): > 100 µM | TGI (SN12C renal): > 100 µM | TGI (SK-MEL-5 melanoma): > 100 µM | TGI (SK-MEL-2 melanoma): > 100 µM
